Laboratory results from PubChem BioAssay (NCI).
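Cultured in 96-well plates, cells were exposed to test compound for 48 hours across five concentrations. GI50 marks 50% less growth. TGI: concentration producing complete growth inhibition.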

Legend:
Assay in all cases: DTP human tumour cell line panel, 48 h
[1] = system: 786-0 renal
[2] = system: A498 renal
[3] = system: A549 NSCLC
[4] = system: ACHN renal
[5] = system: BT-549 breast
[6] = system: CAKI-1 renal
[7] = system: CCRF-CEM leukemia
[8] = system: COLO 205 colon
[9] = system: DU-145 prostate
[10] = system: EKVX NSCLC
[11] = system: HCC-2998 colon
[12] = system: HCT-116 colon
[13] = system: HCT-15 colon
[14] = system: HL-60(TB) leukemia
[15] = system: HOP-62 NSCLC
[16] = system: HOP-92 NSCLC
[17] = system: HS 578T breast
[18] = system: HT29 colon
[19] = system: IGROV1 ovarian
[20] = system: K-562 leukemia
[21] = system: KM12 colon
[22] = system: LOX IMVI melanoma
[23] = system: M14 melanoma
[24] = system: MALME-3M melanoma
[25] = system: MCF7 breast
[26] = system: MDA-MB-231 breast
[27] = system: MDA-MB-435
[28] = system: MOLT-4 leukemia
[29] = system: NCI-H226 lung

Which results are given for `CC1=C(C(=O)Nc2ccc3[nH]ncc3c2)C(c2ccc(Cl)c(Cl)c2)CC(=O)N1` (stereo not drawn)?
GI50 [1]: > 25 µM; TGI [1]: > 25 µM; GI50 [2]: 4.14 µM; TGI [2]: > 25 µM; GI50 [3]: > 25 µM; TGI [3]: > 25 µM; GI50 [4]: > 25 µM; TGI [4]: > 25 µM; GI50 [5]: 4.99 µM; TGI [5]: > 25 µM; GI50 [6]: > 16 µM; TGI [6]: > 25 µM; GI50 [7]: 24.2 µM; TGI [7]: > 25 µM; GI50 [8]: 16.6 µM; TGI [8]: > 25 µM; GI50 [9]: > 25 µM; TGI [9]: > 25 µM; GI50 [10]: > 14.6 µM; TGI [10]: > 25 µM; GI50 [11]: > 25 µM; TGI [11]: > 25 µM; GI50 [12]: 19.4 µM; TGI [12]: > 25 µM; GI50 [13]: > 25 µM; TGI [13]: > 25 µM; GI50 [14]: > 25 µM; TGI [14]: > 25 µM; GI50 [15]: 17 µM; TGI [15]: > 25 µM; GI50 [16]: 0.277 µM; TGI [16]: > 7.6 µM; GI50 [17]: 4.29 µM; TGI [17]: > 25 µM; GI50 [18]: 24.6 µM; TGI [18]: > 25 µM; GI50 [19]: 12.8 µM; TGI [19]: > 25 µM; GI50 [20]: > 25 µM; TGI [20]: > 25 µM; GI50 [21]: > 25 µM; TGI [21]: > 25 µM; GI50 [22]: > 22.3 µM; TGI [22]: > 25 µM; GI50 [23]: > 25 µM; TGI [23]: > 25 µM; GI50 [24]: 10.6 µM; TGI [24]: > 25 µM; GI50 [25]: > 24.1 µM; TGI [25]: > 25 µM; GI50 [26]: 15.9 µM; TGI [26]: > 25 µM; GI50 [27]: > 25 µM; TGI [27]: > 25 µM; GI50 [28]: > 22.9 µM; TGI [28]: > 25 µM; GI50 [29]: 6.09 µM; TGI [29]: > 25 µM
